The text below walks through data of publication PMC10135033, “Sulfonamidoboronic Acids as “Cross-Class” Inhibitors of an Expanded-Spectrum Class C Cephalosporinase, ADC-33, and a Class D Carbapenemase, OXA-24/40: Strategic Compound Design to Combat Resistance in Acinetobacter baumannii” (Antibiotics, 2023).

The target of test [1] is ADC-33 (Acinetobacter baumannii, UniProt A7Y407). Nature of the test: Ki determination, competition assay with nitrocefin (NCF) as substrate. The class given is biochemical. The conditions noted are these: for Ki: corrected for NCF affinity, 5 min pre-incubation, pH 7.4. On the procedure: (§1) The affinity of CR167 for the two different β-lactamases was measured in competition assays using nitrocefin (NCF) as the indicator substrate (Table 1).
(§2) The binding affinity of each of the compounds 6a–e with ADC-33 and with OXA-24/40 was determined after 5 min pre-incubation of boronic acid and the enzyme, using competition assays with nitrocefin (NCF) as the substrate. […] These compounds differ in three structural characteristics: stereochemistry, the presence of the m-carboxylate on the aromatic ring, and the small chain linked to the chiral center. […] Finally, the smaller the steric hindrance is at the R1 position, the higher the affinity is.
(§3) Ki values were determined by using nitrocefin as a reporter substrate and treating the compounds as competitive inhibitors. Steady-state kinetic parameters were determined by combining pure enzyme with nitrocefin in 50 mM NaH2PO4; 25 mM NaHCO3, pH 7.4 (for OXA-24/40); or 50 mM NaH2PO4, pH 7.4 (for ADC-33), at room temperature. Changes in absorbance were measured on a Cary 60 UV−Vis spectrophotometer (Agilent Technologies) and converted to velocity using the change-in-extinction coefficient specific to nitrocefin (ε = 17,400 M^−1·cm^−1 at 482 nm). Initial velocities were fit to the Michaelis–Menten equation, yielding kcat and Km values. Next, the enzyme was challenged with a constant concentration of nitrocefin and increasing amounts of inhibitor. IC50 values were used to calculate Ki values using the Cheng–Prusoff equation as previously described. Specifically, the measurements of the initial velocities were performed with the addition of 100 µM NCF after a 5 min pre-incubation of the enzyme (2 nM) with increasing concentration of the inhibitor [37]. To determine the average velocities (v0), data from three experiments were fit to Equation (1): (1) v0=vu −{vu[I]/IC 50+[I]} where vu represents the NCF uninhibited velocity and IC50 represents the inhibitor concentration that results in a 50% reduction in vu. The Ki value was corrected for the NCF affinity (Km values for both OXA-24/40 and ADC-33) with the Cheng–Prusoff equation (Equation (2)): (2) Ki=IC50/(1+[NCF]/KmNCF)

For test [2], the target named is T1, OXA-24/40 (Acinetobacter baumannii, UniProt Q8RLA6).
T1 construct: made in house
The description is as above. The class given is biochemical. On the procedure: as §1, §2, §3

Test [3] deals with ADC-7. Set-up: method as in PMID 29144724. The following applies: cited from earlier work.
For test [4], the target named is class C β-lactamase AmpC. More on the design: method as in PMID 20945905, PMID 23043117. The following applies: AmpC from E. coli; cited from earlier work.
Test [5] concerns SHV-1. The conditions noted are these: cited from earlier work.
Test [6] has as its system KPC-2. Set-up: method as in PMID 26729496. The following applies: cited from earlier work.
The subject of test [7] is E. coli DH10B pBCSK, blaADC-7. Set-up: method as in PMID 29144724. The conditions noted are these: with CR167; cited from earlier work.

T1 sequence (Q8RLA6 22-275): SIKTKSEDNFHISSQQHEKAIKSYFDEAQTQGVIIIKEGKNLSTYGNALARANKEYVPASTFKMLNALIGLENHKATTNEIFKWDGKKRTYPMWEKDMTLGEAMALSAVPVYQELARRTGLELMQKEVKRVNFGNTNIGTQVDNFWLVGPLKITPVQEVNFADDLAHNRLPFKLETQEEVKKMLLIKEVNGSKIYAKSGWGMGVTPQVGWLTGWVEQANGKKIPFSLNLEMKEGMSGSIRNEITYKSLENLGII

The Ki is the dissociation constant of the complex between target and ligand, obtained from inhibition or displacement. As to `C[C@@H](NS(=O)(=O)Cc1cccc(C(=O)O)c1)B(O)O` [6b], the Ki came to 790 ± 200 nM in test [1] and 5200 ± 500 nM in test [2]. In addition, in test [1] (ratio of Ki, 6b vs 6d), the “fold more potent than 6d, ADC-33” value is recorded as 28 fold. Further, the “fold higher affinity than compound 6a for OXA-24/40” value in test [2] (ratio of Ki, 6b vs 6a) is listed as 120 fold. The “fold more potent than 6d, OXA-24/40” value in test [2] (ratio of Ki, 6b vs 6d) was 60 fold.

The IC50 is the point on the concentration scale where inhibition reaches its midpoint. As for `O=C(O)c1cccc(CS(=O)(=O)NCB(O)O)c1` [CR167], the Ki in test [1] is 57 ± 15 nM; in test [2], 4400 ± 500 nM; in test [3] it was 160 nM; in test [4], 1.3 nM. Further, the IC50 in test [5] was 430 nM; in test [6], 200 nM. In addition, in test [7], the “MIC for CAZ with CR167” value is 1 µg/mL.
